Measured values taken from PubChem BioAssay AID192 (DTP/NCI, 2004).
Several values for one entry are separate records, joined by “and”; a condition that tells them apart may be missing. Equal values may be shown once. Inconclusive results and toxic doses are left out. The calls were made as follows: active = survival T/C of 150% or more; inactive = T/C below 125% in these data.

Test system: BDF1 mice, B16 melanoma ip, median survival T/C
Experiment: NCI In Vivo Anticancer Drug Screen. Data for tumor model B16 Melanoma (intraperitoneal) in B6D2F1 (BDF1) mice
Conditions: endpoint: median survival time, higher = longer survival
Procedure: The antitumor activity of compounds was measured in mice bearing transplantable tumors. Survival or tumor size were measured and the results are expressed as the measurement made in the treated group (T) divided by the measurement made in the vehicle treated control group (C). The tumor model used in this assay is B16 Melanoma (intraperitoneal) in B6D2F1 (BDF1) mice

[1] = dose: 50.0 mg/kg/injection, schedule: Q01DX009 (ip), vehicle: Klucel (hydroxypropylcellulose) (HPC)
[2] = dose: 100.0 mg/kg/injection, schedule: Q01DX009 (ip), vehicle: Klucel (hydroxypropylcellulose) (HPC)
[3] = dose: 200.0 mg/kg/injection, schedule: Q01DX009 (ip), vehicle: Klucel (hydroxypropylcellulose) (HPC)
[4] = dose: 3.12 mg/kg/injection, schedule: Q01DX009 (ip), vehicle: Klucel (hydroxypropylcellulose) (HPC)
[5] = dose: 12.5 mg/kg/injection, schedule: Q01DX009 (ip), vehicle: Klucel (hydroxypropylcellulose) (HPC)
[6] = dose: 25.0 mg/kg/injection, schedule: Q01DX009 (ip), vehicle: Klucel (hydroxypropylcellulose) (HPC)
[7] = dose: 6.25 mg/kg/injection, schedule: Q01DX009 (ip), vehicle: saline with Tween-80
[8] = dose: 12.5 mg/kg/injection, schedule: Q01DX009 (ip), vehicle: saline with Tween-80
[9] = dose: 25.0 mg/kg/injection, schedule: Q01DX009 (ip), vehicle: saline with Tween-80
[10] = dose: 50.0 mg/kg/injection, schedule: Q01DX009 (ip), vehicle: saline with Tween-80
[11] = dose: 100.0 mg/kg/injection, schedule: Q01DX009 (ip), vehicle: saline with Tween-80
[12] = dose: 200.0 mg/kg/injection, schedule: Q01DX009 (ip), vehicle: saline with Tween-80
[13] = dose: 400.0 mg/kg/injection, schedule: Q01DX009 (ip), vehicle: Klucel (hydroxypropylcellulose) (HPC)

Measured: T/C

CC(C)N(C(=O)COc1ccc(Cl)cc1)c1ccccc1
inactive: [1] 86 % of control | [2] 106 % of control | [3] 86 % of control

COC(=O)Nc1cn2cc(C(=O)c3cccs3)ccc2n1
inactive: dose: 1.56 mg/kg/injection, schedule: Q01DX009 (ip), vehicle: Klucel (hydroxypropylcellulose) (HPC) 93 % of control | [4] 98 % of control | dose: 6.25 mg/kg/injection, schedule: Q01DX009 (ip), vehicle: Klucel (hydroxypropylcellulose) (HPC) 104 % of control | [5] 113 % of control | [6] 123 % of control

CCN(CC)CC#N
inactive: dose: 1.0 mg/kg/injection, schedule: Q01DX009 (ip), vehicle: saline 94 % of control | dose: 2.0 mg/kg/injection, schedule: Q01DX009 (ip), vehicle: saline 105 % of control | dose: 4.0 mg/kg/injection, schedule: Q01DX009 (ip), vehicle: saline 104 % of control

NNC(=O)c1ccc(-c2ccccc2)cc1
inactive: dose: 12.5 mg/kg/injection, schedule: Q01DX009 (ip), vehicle: other 93 % of control | dose: 25.0 mg/kg/injection, schedule: Q01DX009 (ip), vehicle: other 95 % of control | dose: 50.0 mg/kg/injection, schedule: Q01DX009 (ip), vehicle: other 100 % of control | dose: 100.0 mg/kg/injection, schedule: Q01DX009 (ip), vehicle: other 100 % of control

CC(C)(O)C(C)(O)c1cccc(Cl)c1 (stereo unspecified)
inactive: [5] 107 % of control | [6] 102 % of control | [1] 88 % of control

C[Se]c1ncnc2c1c(C#N)cn2C1OC(CO)C(O)C1O (stereo unspecified)
inactive: [4] 92 % of control | [5] 97 % of control | [6] 90 % of control

COc1cc2c(c(OC)c1OC)C(=O)/C(=C\c1ccccc1)O2
inactive: [7] 101 % of control | [8] 106 % of control | [9] 103 % of control | [10] 86 % of control

COc1c(OC(C)=O)cc2c(OC(C)=O)c1CC(C)CC(OC)C(O)C(C)/C=C(\C)C(OC(N)=O)C(OC)/C=C\C=C(/C)C(=O)N2 (stereo unspecified)
inactive: dose: 12.5 mg/kg/injection, schedule: Q01DX005 (ip), vehicle: other 97 % of control | dose: 25.0 mg/kg/injection, schedule: Q01DX005 (ip), vehicle: other 98 % of control | dose: 50.0 mg/kg/injection, schedule: Q01DX005 (ip), vehicle: other 97 % of control | dose: 100.0 mg/kg/injection, schedule: Q01DX005 (ip), vehicle: other 101 % of control | dose: 200.0 mg/kg/injection, schedule: Q01DX005 (ip), vehicle: other 94 % of control

C#C[C@]1(O)CC[C@H]2[C@@H]3CCc4cc(O)ccc4[C@H]3CC[C@@]21C
inactive: dose: 5.0 mg/kg/injection, schedule: Q02DX009 (ip), vehicle: Klucel (hydroxypropylcellulose) (HPC) 86 % of control | dose: 10.0 mg/kg/injection, schedule: Q02DX009 (ip), vehicle: Klucel (hydroxypropylcellulose) (HPC) 97 % of control | dose: 20.0 mg/kg/injection, schedule: Q02DX009 (ip), vehicle: Klucel (hydroxypropylcellulose) (HPC) 87 % of control | dose: 40.0 mg/kg/injection, schedule: Q02DX009 (ip), vehicle: Klucel (hydroxypropylcellulose) (HPC) 86 % of control and 96 % of control | dose: 80.0 mg/kg/injection, schedule: Q02DX009 (ip), vehicle: Klucel (hydroxypropylcellulose) (HPC) 86 % of control

C=CCOCCN1CCN(CCCN2c3ccccc3Sc3ccc(C(F)(F)F)cc32)CC1
inactive: dose: 0.31 mg/kg/injection, schedule: Q01DX009 (ip), vehicle: saline 102 % of control | dose: 0.62 mg/kg/injection, schedule: Q01DX009 (ip), vehicle: saline 95 % of control | dose: 0.78 mg/kg/injection, schedule: Q01DX009 (ip), vehicle: saline 102 % of control | dose: 1.56 mg/kg/injection, schedule: Q01DX009 (ip), vehicle: saline 114 % of control

Cc1cc(NS(=O)(=O)c2ccc(N=Nc3cc(N=Nc4ccc(S(=O)(=O)Nc5cc(C)nc(C)n5)cc4)c4c(NC(=O)C(Cl)Cl)cccc4c3OC(=O)C(Cl)Cl)cc2)nc(C)n1 (tested in a mixture with another compound)
inactive: dose: 12.5 mg/kg/injection, schedule: Q01DX009 (ip), vehicle: suspension in saline 98 % of control | dose: 25.0 mg/kg/injection, schedule: Q01DX009 (ip), vehicle: suspension in saline 95 % of control | dose: 50.0 mg/kg/injection, schedule: Q01DX009 (ip), vehicle: suspension in saline 97 % of control | dose: 100.0 mg/kg/injection, schedule: Q01DX009 (ip), vehicle: suspension in saline 95 % of control | dose: 200.0 mg/kg/injection, schedule: Q01DX009 (ip), vehicle: suspension in saline 93 % of control | dose: 400.0 mg/kg/injection, schedule: Q01DX009 (ip), vehicle: suspension in saline 87 % of control

CC(C)COC(=O)c1ccc(NC(=O)Nc2ccccc2)cc1
inactive: [11] 93 % of control | [12] 102 % of control | dose: 400.0 mg/kg/injection, schedule: Q01DX009 (ip), vehicle: saline with Tween-80 97 % of control

O=[N+]([O-])c1ccc(N2CCCC2)c([N+](=O)[O-])c1
inactive: [2] 93 % of control | [3] 100 % of control | [13] 100 % of control

CC1C2CC3C(OC(=O)C13)C2I (stereo unspecified)
inactive: [11] 107 % of control | [12] 89 % of control

CCCCOC(=O)c1ccc(NC(=O)Nc2ccccc2OC)cc1
inactive: [8] 93 % of control | [9] 100 % of control | [10] 98 % of control

O=Cc1ccc(C=O)c(Cl)c1
inactive: [1] 97 % of control | [2] 109 % of control | [3] 107 % of control | [13] 104 % of control

C=CCC(OC(=O)c1ccc(Br)cc1)C1(C)OC1C(C)C1CC(O)(C(OC)OC)NC(=O)O1 (stereo unspecified)
inactive: dose: 0.25 mg/kg/injection, schedule: Q01DX009 (ip), vehicle: saline + alcohol 100 % of control | dose: 0.5 mg/kg/injection, schedule: Q01DX009 (ip), vehicle: saline + alcohol 103 % of control | dose: 1.0 mg/kg/injection, schedule: Q01DX009 (ip), vehicle: saline + alcohol 93 % of control | dose: 2.0 mg/kg/injection, schedule: Q01DX009 (ip), vehicle: saline + alcohol 98 % of control | dose: 4.0 mg/kg/injection, schedule: Q01DX009 (ip), vehicle: saline + alcohol 90 % of control

C/C(=N\NC(N)=O)c1cccc(/C(C)=N/NC(N)=O)n1
inactive: [7] 91 % of control | [8] 96 % of control | [9] 86 % of control | [10] 88 % of control | [11] 86 % of control

Cc1c2ccncc2cc2c1[nH]c1ccccc12
inactive: [9] 119 % of control | [10] 121 % of control | [11] 122 % of control

Oc1ccc(/C=N\Nc2ccccn2)c(O)c1
inactive: [5] 90 % of control | [6] 102 % of control | [1] 98 % of control | [2] 115 % of control | [3] 124 % of control

O=[N+]([O-])OCc1c(Cl)nc(Cl)c(Cl)c1Cl
inactive: dose: 15.0 mg/kg/injection, schedule: Q01DX009 (ip), vehicle: Klucel (hydroxypropylcellulose) (HPC) 111 % of control | dose: 30.0 mg/kg/injection, schedule: Q01DX009 (ip), vehicle: Klucel (hydroxypropylcellulose) (HPC) 108 % of control | dose: 60.0 mg/kg/injection, schedule: Q01DX009 (ip), vehicle: Klucel (hydroxypropylcellulose) (HPC) 88 % of control

C1CCc2nnnn2CC1
inactive: dose: 1.56 mg/kg/injection, schedule: Q04DX003 (ip), vehicle: saline 111 % of control | dose: 3.12 mg/kg/injection, schedule: Q01DX009 (ip), vehicle: saline 113 % of control | dose: 3.12 mg/kg/injection, schedule: Q04DX003 (ip), vehicle: saline 110 % of control | dose: 6.25 mg/kg/injection, schedule: Q01DX009 (ip), vehicle: saline 102 % of control | dose: 6.25 mg/kg/injection, schedule: Q04DX003 (ip), vehicle: saline 106 % of control | dose: 12.5 mg/kg/injection, schedule: Q01DX009 (ip), vehicle: saline 102 % of control | dose: 12.5 mg/kg/injection, schedule: Q04DX003 (ip), vehicle: saline 103 % of control | dose: 25.0 mg/kg/injection, schedule: Q01DX009 (ip), vehicle: saline 88 % of control | dose: 25.0 mg/kg/injection, schedule: Q04DX003 (ip), vehicle: saline 103 % of control and 111 % of control | dose: 50.0 mg/kg/injection, schedule: Q04DX003 (ip), vehicle: saline 105 % of control
